Assay results as given in patent US20110281901A1, “PHARMACEUTICAL COMPOSITIONS AND METHODS OF MAKING SAME” (GLAXO WELLCOME MANUFACTURING PTE LTD., priority 2010, published 2011).
Values after ≈ are worked out from the molar mass of the structure shown.

Key:
[1] = physchem; details: phosphate buffer, 25 °C, pH 5, aqueous buffer
[2] = Solubility of pazopanib free base in phosphate buffer; details: 25° C., pH 3.5

- solubility [1]: ~6 ng/mL (≈ 0.0137 µM)
- approximate solubility [2]: ~20000 ng/mL
SMILES: Cc1ccc(Nc2nccc(N(C)c3ccc4c(C)n(C)nc4c3)n2)cc1S(N)(=O)=O [pazopanib free base, 5-[[4-[(2,3-dimethyl-2H-indazol-6-yl)methylamino]-2-pyrimidinyl]amino]-2-methylbenzenesulfonamide]
